Counter-ions that a name gives are not always drawn.
Legend:
Type in all cases: physicochemical
[1] = Relative efficiency of fluorescence / absolute sensitivity of label, normalized to dye A30 in PBS; settings: for Sensitivity of record 635/ 670: excitation 635 nm, record 670 nm; for Sensitivity of record 655/ 690: excitation 655 nm, record 690 nm; for Sensitivity of record max/ max: excitation and record in absorption and fluorescence maxima, ε*Φ normalized to A30 in PBS
Excerpt: The data obtained were as follows: • on excitation and record in absorption and fluorescence maxima, the relative efficiency of fluorescence exceeds 0.80 for dyes (A10), (A22), (A23), (A25), and (A30) in methanol and for dyes (A22), (A25), and (A30) in PBS (Table 1, Fig. 4), whereas for dyes of formula (I) (R1 = -CH3, R2= R6= -SO3^-; R3= -(CH2)5COOH, R4= -C2H5; R5= -H) the values are 0.69 in methanol and 0.67 in PBS; • on excitation at wavelength 655 nm and record at 690 nm, the relative efficiency of fluorescence exceeds 0.25 for dyes (A25) and (A30) in methanol and is higher than 0.18 for dyes (A24) and (A30) in PBS (Table 1, Fig. 5), whereas for dyes of formula (I) (R1 = -CH3, R2 = R6= -SO3^-; R3= -(CH2)5COOH, R4= -C2H5; R5= -H) the values are 0.18 in methanol and 0.11 in PBS; • on excitation at wavelength 635 nm and record at 670 nm, the relative efficiency of fluorescence exceeds 0.50 for dyes (A1), (A11), (A23) in methanol and is higher than 0.45 for dyes (A22), (A25), and (A30) in PBS (Table 1, Fig. 6), whereas for dyes of formula (I) (R1= -CH3, R2= R6= -SO3^-; R3= -(CH2)5COOH, R4= -C2H5; R5= -H) the values are 0.44 in methanol and 0.38 in PBS.
Term sensitivity of fluorescent analysis is defined by the absolute sensitivity of label that may be represented as the product of molar extinction coefficient by quantum efficiency of fluorescence (ε*Φ). Thus, there are determined the absolute sensitivity of indodicarbocyanines (A1-A30, B1-B7) in appropriate absorption and fluorescence maxima in methanol and in aqueous phosphate buffered saline. The values are normalized to the maximal value obtained for dye (A30) in PBS (Table 1). In methanol, dyes (A10, A22, A23, A25, A30) have the upper-range of absolute sensitivity, but in PBS, dyes (A10, A22, A25, A29, A30) have the maximal values of sensitivity (Fig. 4).
To determine the most appropriate dyes for instrument setting, there are measured the relative efficiency of fluorescence of dyes at wavelength of excitation and record of the instrument (655 nm. / 690 nm). The maximal values appear to be specific to dyes (A25) and (A30) in methanol, and to dyes (A19, A22, A25, A29, A30) in PBS (Table 1, Fig. 5).
There are also measured the relative efficiency of fluorescence at wavelength of excitation and record of the instrument (635 nm / 670 nm). The maximal values appear to be specific to dyes (A1, A10, A11, A23) in methanol, and to dyes (A10, A22, A25, A29, A30) in PBS (Table 1, Fig. 6).

[2] = Quantum efficiency of fluorescence, measured versus a reference dye
Method: For all indodicarbocyanine dyes (I) (A1) - (A30) and (B1) - (B7) of the invention, there are determined the quantum efficiency of fluorescence in methanol and in aqueous phosphate buffered saline (Table 1, Fig. 3). The measurements are performed versus dyes of formula (I) (R1= -CH3, R2= R6= -SO3^-; R3= -(CH2)5COOH, R4= -C2H5, R5= -H) whose quantum efficiency of fluorescence in PBS is 0.27 (Mader O., K. Reider, H.-J. Egelhaaaf, R, Fischer, R. Brock, Structure Properties of Pentamethine Indocyanine Dyes: Identification of New Dyes for Life Science Applications. Bioconjugate Chem, 2004, vol. 15, pp. 70-78). In methanol, dyes (A10, A22, A25, A29, A30) have the upper-range of quantum efficiency of fluorescence (Φ ∼ 0.3), but in PBS, dyes (A10, A22, A25, A29, A30) have the maximal Φ -value.

[3] = Absorption and fluorescence maxima of the dyes
Excerpt: An insertion of methyl group at 5- and 7-positions of indolenyne cycle produces a bathochromic shift in the absorption and fluorescent spectra. As to the rest sulfur containing dyes, the spectral characteristics thereof appear to be in the same range (between about λmax 648 nm and λem 669 nm) (Fig. 1),

[4] = Molar extinction coefficient in methanol and PBS; set-up: ε·10^-5: unit not given here
Method: For all indodicarbocyanine dyes (I) (A1) - (A30) and (B1) - (B7) of the invention, there are determined the molar extinction coefficients in methanol and in aqueous phosphate buffered saline (PBS) (10 mM potassium phosphate buffer, sodium chloride concentration is 0.9%, pH 7.4). In methanol, indodicarbocyanine (A1, A8, A10-A12, A17, A23) has the upper-range of molar extinction coefficient (ε >[…]). In aqueous phosphate buffered saline (PBS), dyes (A10, A23, A30) have the maximal ε-value (Fig. 2).

[5] = PBS (10 mM potassium phosphate buffer, 0.9% sodium chloride, pH 7.4)

Compound	Sensitivity of record 635/ 670 ([1]; PBS)	Sensitivity of record 655/ 690 ([1]; PBS)	Sensitivity of record max/ max ([1]; PBS)	Φ (quantum efficiency of fluorescence) ([2]; PBS)	Φ (quantum efficiency of fluorescence) ([2]; MeOH)	also measured
CCN1/C(=C/C=C/C=C/C2=[N+](CCCCS(=O)(=O)O)c3ccc(S(=O)(=O)O)cc3C2(C)C)C(C)(CCCCC(=O)O)c2cc(S(=O)(=O)[O-])ccc21 (stereo not shown) [A29, 5,5'-disulfo-3-(4-carboxybutyl)-N'-(4-sulfobutyl)-3,3';3'-trimethyl-N-ethylindodicarbocyanine, disodium salt]	maximal	maximal	maximal	maximal	–	–
CCN1C(=CC=CC=CC2=[N+](CCCCS(=O)(=O)[O-])c3ccc(C)cc3C2(C)CCCCC(=O)O)C(C)(C)c2cc(C)ccc21 (stereo not shown) [A5, 3-(4-Carboxybutyl)-3,3',3',5,5'-pentamethyl-N-(4-sulfobutyl)-N'-ethylindodicarbocyanine]	0.136	0.096	0.238	0.09	0.16	λmax^abs ([3]; MeOH): 654 nm; λmax^em ([3]; MeOH): 674 nm; λmax^abs ([3]; PBS): 653 nm; λmax^em ([3]; PBS): 670 nm; ε·10^-5 ([4]; MeOH): 2.05±0.02; ε·10^-5 [4, 5]: 1.96±0.02; Sensitivity of record 635/ 670 ([1]; MeOH): 0.212; Sensitivity of record 655/ 690 ([1]; MeOH): 0.229; Sensitivity of record max/ max ([1]; MeOH): 0.391
Cc1ccc2c(c1)C(C)(C)C(=CC=CC=CC1=[N+](CCCCS(=O)(=O)[O-])c3ccc(CCC(=O)O)cc3C1(C)C)N2CCCCS(=O)(=O)[O-].[Na+] [B4, N,N'-disulfobutyl-5-carboxyethyl-3,3,3',3',5'-pentamethylindodicarbocyanine, sodium salt]	–	–	–	–	0.19	–
CCN1C(=CC=CC=CC2=[N+](CCCCS(=O)(=O)[O-])c3ccccc3C2(C)CCCCC(=O)O)C(C)(C)c2ccccc21 (stereo not shown) [A1, 3-(4-carboxybutyl)-N-(4-sulfobutyl)-3,3',3'-trimethyl-N'-ethylindodicarbocyanine]	0.123	0.153	0.372	0.13	0.25	λmax^abs ([3]; MeOH): 644 nm; λmax^em ([3]; MeOH): 662 nm; λmax^abs ([3]; PBS): 643 nm; λmax^em ([3]; PBS): 657 nm; ε·10^-5 ([4]; MeOH): 2.47±0.02; ε·10^-5 [4, 5]: 2.06±0.02; Sensitivity of record 655/ 690 ([1]; MeOH): 0.025; Sensitivity of record max/ max ([1]; MeOH): 0.737
CC[N+]1=C(/C=C/C=C/C=C2/N(CCCCS(=O)(=O)[O-])c3ccc(C)cc3C2(C)CCCCC(=O)O)C(C)(C)c2cc(C)cc(C)c21 (stereo not shown) [A6, 3,3',3',5,5'.7'-hexamethyl-3-(4-carboxybutyl)-N-(4-sulfobutyl)-N'-ethylindodicarbocyanine]	0.089	0.085	0.170	0.07	0.11	λmax^abs ([3]; MeOH): 654 nm; λmax^em ([3]; MeOH): 672 nm; λmax^abs ([3]; PBS): 656 nm; λmax^em ([3]; PBS): 676 nm; ε·10^-5 ([4]; MeOH): 2.13±0.03; ε·10^-5 [4, 5]: 1.82±0.03; Sensitivity of record 635/ 670 ([1]; MeOH): 0.151; Sensitivity of record 655/ 690 ([1]; MeOH): 0.198; Sensitivity of record max/ max ([1]; MeOH): 0.292
Cc1ccc2c(c1)C(C)(CCCCC(=O)O)C(C=CC=CC=C1N(CCCCS(=O)(=O)[O-])c3ccccc3C1(C)C)=[N+]2CCCCS(=O)(=O)[O-].[Na+] (stereo not shown) [A17, N,N'-di(4-sulfobutyl)-3-(4-carboxybutyl)-3,3',3',5-tetramethylindodicarbocyanine, sodium salt]	–	–	–	–	–	molar extinction coefficient (ε) ([4]; in methanol): > 220000 M⁻¹ cm⁻¹
CCN1C(=CC=CC=CC2=[N+](CC)c3ccc(S(=O)(=O)[O-])cc3C2(C)CCCCC(=O)O)C(C)(C)c2cc(S(=O)(=O)[O-])ccc21.[Na+] (stereo not shown) [A22, 5,5'-disulfo-N,N'-diethyl-3-(4-carboxybutyl)-3,3',3'-trimethylindodicarbocyanine, sodium salt]	–	maximal	–	maximal	~0.3	–
CC1(C)C(=CC=CC=CC2=[N+](CCCCS(=O)(=O)[O-])c3ccc(CCC(=O)O)cc3C2(C)C)N(CCCCS(=O)(=O)[O-])c2ccccc21.[Na+] [B5, N,N'-disulfobutyl-5-carboxyethyl-3,3,3',3'-tetramethylindodicarbocyanine, sodium salt]	–	–	–	–	0.17	molar extinction coefficient ([4]; solvent not stated): about 200,000
CC1(C)C(/C=C/C=C/C=C2/N(CCCCS(=O)(=O)O)c3ccccc3C2(C)CCCCC(=O)O)=[N+](CCCCS(=O)(=O)O)c2ccc(S(=O)(=O)[O-])cc21 (stereo not shown) [A23, N,N'-di(4-sulfobutyl)-3-(4-carboxybutyl)-5'-sulfo-3,3',3'-trimethylindodicarbocyanine, disodium salt]	–	–	–	–	–	molar extinction coefficient (ε) ([4]; in aqueous phosphate buffered saline (PBS)): maximal
CC[N+]1=C(/C=C/C=C/C=C2/N(CCCCS(=O)(=O)O)c3ccc(S(=O)(=O)[O-])cc3C2(C)CCCCC(=O)O)C(C)(C)c2cc(S(=O)(=O)O)ccc21 (stereo not shown) [A25, 5,5'-disulfo-3-(4-carboxybutyl)-N-(4-sulfobutyl)-3,3',3'-trimethyl-N'-ethylindodicarbocyanine, disodium salt]	–	maximal	–	–	–	–
Cc1ccc2c(c1)C(C)(C)C(=CC=CC=CC1=[N+](CCCCS(=O)(=O)[O-])c3ccc(C)cc3C1(C)CCCCC(=O)O)N2CCCCS(=O)(=O)[O-].[Na+] (stereo not shown) [A19, N,N'-di(4-sulfobutyl)-3-(4-carboxybutyl)-3,3',3',5,5'-pentamethylindodicarbocyanine, sodium salt]	–	maximal	–	–	–	–
CC1(C)C(C=CC=CC=C2N(CCCCS(=O)(=O)O)c3ccccc3C2(C)CCCCC(=O)O)=[N+](CCCCS(=O)(=O)[O-])c2ccccc21 (stereo not shown) [A10, N,N'-di(4-sulfobutyl)-3-(4-carboxybutyl)-3,3',3'-trimethylindodicarbocyanine, sodium salt]	maximal	–	maximal	maximal	~0.3	Sensitivity of record 635/ 670 ([1]; MeOH): maximal
CC1(C)C(=CC=CC=CC2=[N+](CCCCS(=O)(=O)[O-])c3ccc(S(=O)(=O)[O-])cc3C2(C)CCCCC(=O)O)N(CCCCS(=O)(=O)[O-])c2ccccc21.[Na+].[Na+] (stereo not shown) [A24, N,N'-di(4-sulfobutyl)-3-(4-carboxybutyl)-5-sulfo-3,3',3'-trimethylindodicarbocyanine, disodium salt]	–	higher than 0.18	–	–	–	–

From patent EP2157088A1, “INDICYANINE DYES AND THE DERIVATIVES THEREOF FOR ANALYSING BIOLOGICAL MICROMOLECULES” (UCHREZHDENIE ROSSIISKOI AKADEMII NAUK INSTITUT …, priority 2007, dated 2008)
